The record followed here is ChEMBL document CHEMBL1208739, “Synthesis and SAR of azolopyrimidines as potent and selective dipeptidyl peptidase-4 (DPP4) inhibitors for type 2 diabetes” (Bioorg Med Chem Lett, 2010).

The term Ki denotes the dissociation constant of the complex between target and ligand, obtained from inhibition or displacement. Higher therefore signals a looser hold on the target. In general, IC50 refers to the concentration at which inhibition is half-maximal.

Data set [1] deals with Dipeptidyl peptidase 8 (Homo sapiens, UniProt Q6V1X1). Briefly: Inhibition of human DPP8.
In data set [2] the target is Dipeptidyl peptidase 9 (Homo sapiens, UniProt Q86TI2). Briefly: Inhibition of human DPP89.
The target in data set [3] is Cytochrome P450 3A4 (Homo sapiens, UniProt P08684). Briefly: inhibition of CYP3A4. The format is ADME.
The target in data set [4] is Cytochrome P450 2C9 (Homo sapiens, UniProt P11712). Briefly: inhibition of CYP2C9. The format is ADME.
Data set [5] concerns the target Voltage-gated inwardly rectifying potassium channel KCNH2 (Homo sapiens, UniProt Q12809). Briefly: Inhibition of human ERG.
The target of data set [6] is Cytochrome P450 2C19 (Homo sapiens, UniProt P33261). Briefly: inhibition of CYP2C19. The format is ADME.
The target of data set [7] is T1, Cytochrome P450 1A2 (Homo sapiens, UniProt P05177).
T1 sequence (P05177 whole entry): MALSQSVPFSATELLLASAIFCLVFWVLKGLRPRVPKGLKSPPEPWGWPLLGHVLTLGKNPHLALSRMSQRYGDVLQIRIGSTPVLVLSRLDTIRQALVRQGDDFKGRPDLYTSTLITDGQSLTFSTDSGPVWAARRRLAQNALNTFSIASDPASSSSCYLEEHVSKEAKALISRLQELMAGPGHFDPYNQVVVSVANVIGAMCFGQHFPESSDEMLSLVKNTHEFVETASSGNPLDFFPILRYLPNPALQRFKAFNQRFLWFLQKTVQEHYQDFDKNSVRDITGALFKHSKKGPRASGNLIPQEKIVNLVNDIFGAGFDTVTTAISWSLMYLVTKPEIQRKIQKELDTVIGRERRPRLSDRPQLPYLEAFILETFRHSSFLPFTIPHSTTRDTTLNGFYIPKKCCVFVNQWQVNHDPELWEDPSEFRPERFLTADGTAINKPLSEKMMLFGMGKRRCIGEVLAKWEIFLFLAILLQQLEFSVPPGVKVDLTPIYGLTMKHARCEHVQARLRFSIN
Briefly: inhibition of CYP1A2. Format: ADME.

Data set [8] has as its system Mus musculus. Briefly: Antidiabetic activity in ob/ob mouse assessed as increase in mean insulin level at 3 umol/kg, po measured after 15 mins of glucose challenge by oral glucose tolerance test. The format is functional.
Data set [9] has as its system Mus musculus. Description: Antidiabetic activity in ob/ob mouse assessed as increase in mean insulin level at 10 umol/kg, po measured after 15 mins of glucose challenge by oral glucose tolerance test. Format: functional.

Structures are written as SMILES. Some results are limits rather than exact numbers.

Dipeptidyl peptidase 9, sequence (Q86TI2 whole entry): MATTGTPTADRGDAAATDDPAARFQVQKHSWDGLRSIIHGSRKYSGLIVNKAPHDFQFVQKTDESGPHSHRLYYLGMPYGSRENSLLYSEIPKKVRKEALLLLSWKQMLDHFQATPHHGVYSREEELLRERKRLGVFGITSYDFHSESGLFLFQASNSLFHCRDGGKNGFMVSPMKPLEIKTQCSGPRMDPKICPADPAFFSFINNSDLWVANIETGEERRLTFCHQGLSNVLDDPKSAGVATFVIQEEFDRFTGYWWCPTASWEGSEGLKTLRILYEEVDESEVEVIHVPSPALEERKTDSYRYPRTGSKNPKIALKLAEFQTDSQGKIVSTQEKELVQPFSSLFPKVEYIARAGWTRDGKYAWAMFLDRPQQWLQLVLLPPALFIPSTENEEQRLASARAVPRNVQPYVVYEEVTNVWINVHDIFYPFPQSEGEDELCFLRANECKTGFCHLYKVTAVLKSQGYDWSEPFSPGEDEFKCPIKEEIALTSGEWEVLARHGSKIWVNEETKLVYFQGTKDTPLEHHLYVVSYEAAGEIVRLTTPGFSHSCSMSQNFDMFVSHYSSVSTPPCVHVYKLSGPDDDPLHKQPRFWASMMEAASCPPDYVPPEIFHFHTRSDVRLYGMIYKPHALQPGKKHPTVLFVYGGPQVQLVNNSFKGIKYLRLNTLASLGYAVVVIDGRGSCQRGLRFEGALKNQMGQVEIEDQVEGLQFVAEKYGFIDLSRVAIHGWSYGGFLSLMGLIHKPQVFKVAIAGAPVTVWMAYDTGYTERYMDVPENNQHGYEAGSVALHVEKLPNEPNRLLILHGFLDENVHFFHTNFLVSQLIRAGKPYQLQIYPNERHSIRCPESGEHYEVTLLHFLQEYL
Dipeptidyl peptidase 8, sequence (Q6V1X1 whole entry): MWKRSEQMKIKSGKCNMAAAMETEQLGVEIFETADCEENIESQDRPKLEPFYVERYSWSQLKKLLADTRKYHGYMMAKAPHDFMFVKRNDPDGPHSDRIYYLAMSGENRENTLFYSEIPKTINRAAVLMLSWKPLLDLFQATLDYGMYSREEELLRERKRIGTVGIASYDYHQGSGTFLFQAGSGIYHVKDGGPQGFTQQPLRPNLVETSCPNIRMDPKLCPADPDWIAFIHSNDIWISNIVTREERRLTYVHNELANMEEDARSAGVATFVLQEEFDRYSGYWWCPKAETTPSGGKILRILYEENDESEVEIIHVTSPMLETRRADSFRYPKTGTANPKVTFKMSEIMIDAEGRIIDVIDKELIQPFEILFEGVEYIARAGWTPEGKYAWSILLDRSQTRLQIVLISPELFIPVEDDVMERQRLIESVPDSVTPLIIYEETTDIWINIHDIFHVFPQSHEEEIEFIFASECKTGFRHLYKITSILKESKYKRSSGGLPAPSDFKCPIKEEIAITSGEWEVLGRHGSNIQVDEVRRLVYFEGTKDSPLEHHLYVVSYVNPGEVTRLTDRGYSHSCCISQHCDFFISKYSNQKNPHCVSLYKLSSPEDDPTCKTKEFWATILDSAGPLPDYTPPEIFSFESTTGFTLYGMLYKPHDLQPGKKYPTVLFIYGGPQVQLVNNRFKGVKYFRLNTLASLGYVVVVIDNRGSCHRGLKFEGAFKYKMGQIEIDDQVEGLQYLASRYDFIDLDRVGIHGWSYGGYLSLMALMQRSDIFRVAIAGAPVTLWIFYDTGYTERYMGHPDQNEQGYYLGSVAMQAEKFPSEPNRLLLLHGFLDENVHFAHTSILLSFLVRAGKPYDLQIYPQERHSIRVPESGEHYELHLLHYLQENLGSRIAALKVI
Voltage-gated inwardly rectifying potassium channel KCNH2, sequence (Q12809 whole entry): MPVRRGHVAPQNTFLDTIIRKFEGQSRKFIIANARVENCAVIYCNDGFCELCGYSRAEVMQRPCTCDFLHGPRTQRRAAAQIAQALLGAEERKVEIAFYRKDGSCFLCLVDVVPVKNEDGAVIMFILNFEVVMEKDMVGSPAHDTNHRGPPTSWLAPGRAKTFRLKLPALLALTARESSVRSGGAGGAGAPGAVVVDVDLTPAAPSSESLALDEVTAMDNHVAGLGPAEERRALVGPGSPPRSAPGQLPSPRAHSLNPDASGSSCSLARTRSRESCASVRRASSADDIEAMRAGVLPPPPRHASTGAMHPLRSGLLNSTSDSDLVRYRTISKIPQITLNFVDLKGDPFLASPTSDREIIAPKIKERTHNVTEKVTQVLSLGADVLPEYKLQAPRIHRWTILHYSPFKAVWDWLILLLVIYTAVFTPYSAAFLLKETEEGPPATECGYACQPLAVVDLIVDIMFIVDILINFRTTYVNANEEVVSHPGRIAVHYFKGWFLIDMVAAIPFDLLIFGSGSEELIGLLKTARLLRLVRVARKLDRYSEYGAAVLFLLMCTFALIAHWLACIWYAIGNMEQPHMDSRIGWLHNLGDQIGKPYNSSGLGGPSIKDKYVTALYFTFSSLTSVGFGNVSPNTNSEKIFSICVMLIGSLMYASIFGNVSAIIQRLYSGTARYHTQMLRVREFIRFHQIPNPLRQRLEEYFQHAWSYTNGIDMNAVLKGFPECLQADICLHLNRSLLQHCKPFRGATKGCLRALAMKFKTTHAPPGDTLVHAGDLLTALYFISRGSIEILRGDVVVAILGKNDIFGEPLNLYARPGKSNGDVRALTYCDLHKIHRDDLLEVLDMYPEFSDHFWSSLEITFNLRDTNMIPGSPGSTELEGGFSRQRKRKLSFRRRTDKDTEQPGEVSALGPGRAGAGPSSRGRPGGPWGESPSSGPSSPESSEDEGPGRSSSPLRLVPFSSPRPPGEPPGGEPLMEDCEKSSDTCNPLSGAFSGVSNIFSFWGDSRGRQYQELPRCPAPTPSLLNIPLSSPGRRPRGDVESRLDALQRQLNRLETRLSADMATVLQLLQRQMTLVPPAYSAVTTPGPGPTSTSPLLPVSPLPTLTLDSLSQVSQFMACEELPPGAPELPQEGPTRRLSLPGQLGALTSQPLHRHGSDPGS
Cytochrome P450 3A4, sequence (P08684 whole entry): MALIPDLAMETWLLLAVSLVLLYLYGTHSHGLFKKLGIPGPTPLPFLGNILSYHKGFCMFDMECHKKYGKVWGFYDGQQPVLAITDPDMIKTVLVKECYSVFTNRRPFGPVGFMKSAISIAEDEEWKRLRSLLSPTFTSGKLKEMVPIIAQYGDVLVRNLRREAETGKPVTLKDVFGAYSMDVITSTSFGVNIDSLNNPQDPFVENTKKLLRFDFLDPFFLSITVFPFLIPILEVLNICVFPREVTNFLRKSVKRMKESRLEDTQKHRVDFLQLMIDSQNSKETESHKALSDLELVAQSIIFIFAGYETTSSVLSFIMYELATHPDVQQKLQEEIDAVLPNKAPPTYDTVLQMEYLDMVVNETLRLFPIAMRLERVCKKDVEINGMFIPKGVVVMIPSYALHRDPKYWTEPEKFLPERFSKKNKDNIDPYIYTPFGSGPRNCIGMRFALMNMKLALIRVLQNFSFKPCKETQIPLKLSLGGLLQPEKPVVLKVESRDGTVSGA
Cytochrome P450 2C9, sequence (P11712 whole entry): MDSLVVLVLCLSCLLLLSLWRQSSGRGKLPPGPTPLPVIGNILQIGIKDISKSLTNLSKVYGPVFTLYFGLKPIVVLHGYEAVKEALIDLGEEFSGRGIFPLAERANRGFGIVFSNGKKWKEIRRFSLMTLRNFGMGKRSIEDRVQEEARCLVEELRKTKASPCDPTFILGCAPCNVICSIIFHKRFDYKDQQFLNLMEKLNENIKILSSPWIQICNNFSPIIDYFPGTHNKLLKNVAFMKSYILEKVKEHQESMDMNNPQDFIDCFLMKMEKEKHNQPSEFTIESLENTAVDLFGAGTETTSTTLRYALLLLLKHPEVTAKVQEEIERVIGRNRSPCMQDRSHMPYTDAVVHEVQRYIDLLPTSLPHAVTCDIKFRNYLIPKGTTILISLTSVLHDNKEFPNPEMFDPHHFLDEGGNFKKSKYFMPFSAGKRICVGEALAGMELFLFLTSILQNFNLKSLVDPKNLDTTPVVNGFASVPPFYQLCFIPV
Cytochrome P450 2C19, sequence (P33261 whole entry): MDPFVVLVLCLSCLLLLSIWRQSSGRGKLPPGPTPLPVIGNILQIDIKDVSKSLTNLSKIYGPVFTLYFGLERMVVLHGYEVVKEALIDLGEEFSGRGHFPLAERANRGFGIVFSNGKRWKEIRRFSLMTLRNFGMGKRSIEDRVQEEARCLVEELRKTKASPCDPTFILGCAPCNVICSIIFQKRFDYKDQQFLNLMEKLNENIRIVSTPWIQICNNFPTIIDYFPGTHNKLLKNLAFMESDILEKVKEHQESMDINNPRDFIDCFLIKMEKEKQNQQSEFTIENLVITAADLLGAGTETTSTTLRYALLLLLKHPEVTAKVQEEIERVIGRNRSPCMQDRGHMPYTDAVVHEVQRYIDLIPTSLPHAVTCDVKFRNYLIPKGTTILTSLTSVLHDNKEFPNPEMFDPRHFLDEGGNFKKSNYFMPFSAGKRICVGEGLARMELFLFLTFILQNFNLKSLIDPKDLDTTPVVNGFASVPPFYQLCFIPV

Turning to `Cc1ccc(-c2cc3nc(C)c(CN)c(-c4ccc(Cl)cc4Cl)n3n2)cc1`, the Ki was > 30 µM in data set [1] and > 10 µM in data set [2].

For `COCCN(C)c1nc2nc(C)c(CN)c(-c3ccc(Cl)cc3Cl)n2n1`, the inhibition constant Ki in [2] is > 30 µM.

`Cc1nc2cc(-c3ccco3)nn2c(-c2ccc(Cl)cc2Cl)c1CN`: the Ki in [1] and in data set [2] was > 30 µM each time.

For the compound `CCC(=O)c1cnn2c(-c3ccc(Cl)cc3Cl)c(CN)c(C)nc12`, the Ki in data set [1] and in data set [2] was > 30 µM each time.

Regarding `Cc1nc2cc(-c3ccccc3)nn2c(-c2ccc(Cl)cc2Cl)c1CN`, the Ki in [1] was > 30 µM; in [2], > 20 µM. Further, the 50% inhibitory concentration (IC50) was 1 µM in data set [3], 12 µM in data set [4], 3 µM in data set [6] and 6 µM in [7]. The “inhibition (INH)” value in data set [5] stood at 95%.

In the case of `CCN(CC)c1nc2nc(C)c(CN)c(-c3ccc(Cl)cc3Cl)n2n1`, the Ki in [1] and in data set [2] was > 30 µM each time.

Regarding `CCN(C)c1nc2nc(C)c(CN)c(-c3ccc(Cl)cc3Cl)n2n1`, the Ki in [1] and in [2] was > 30 µM each time.

For `Cc1nc2nc(N3CCOCC3)nn2c(-c2ccc(Cl)cc2Cl)c1CN`, the inhibition constant (Ki) in [2] is > 30 µM.

With `COC(=O)c1nc2nc(C)c(CN)c(-c3ccc(Cl)cc3Cl)n2n1`, the Ki in data set [1] and in data set [2] was > 30 µM in each case.

As to `Cc1nc2nc(N3CCCC3)nn2c(-c2ccc(Cl)cc2Cl)c1CN`, the results for the Ki in data set [1] and in data set [2] were > 10 µM and > 30 µM, respectively.

Regarding `Cc1nc2nccn2c(-c2ccc(Cl)cc2Cl)c1CN`, the Ki in data set [1] and in data set [2] was > 30 µM throughout.

Consider `Cc1nc2nc(C(=O)Nc3ccccc3)nn2c(-c2ccc(Cl)cc2Cl)c1CN`, for which, in [2], the Ki is > 10 µM.

For `Cc1nc2nc(N3CCSCC3)nn2c(-c2ccc(Cl)cc2Cl)c1CN`, the Ki in data set [1] and in [2] was > 30 µM throughout.

`Cc1nc2nc(-c3ccccc3)nn2c(-c2ccc(Cl)cc2Cl)c1CN`: the Ki in data set [1] and in data set [2] was > 30 µM throughout. The “inhibition (INH)” value in [5] stood at 85%.

As to `Cc1nc2c(-c3ccccc3)cnn2c(-c2ccc(Cl)cc2Cl)c1CN`, the Ki in [1] and in data set [2] was > 30 µM each time.

Take `Cc1nc2nc(C)c(CN)c(-c3ccc(Cl)cc3Cl)n2n1`: the Ki in data set [1] and in data set [2] was > 30 µM throughout.

As for `Cc1cc2nc(C)c(CN)c(-c3ccc(Cl)cc3Cl)n2n1`, the Ki in data set [1] and in data set [2] was > 30 µM throughout.

Turning to `Cc1nc2cc(-c3ccc(Cl)cc3)nn2c(-c2ccc(Cl)cc2Cl)c1CN`, in data set [2], the Ki is > 30 µM.

Consider `Cc1nc2nc(N3CCN(C(=O)OC(C)(C)C)CC3)nn2c(-c2ccc(Cl)cc2Cl)c1CN`, for which the Ki in data set [1] and in data set [2] was > 30 µM in each case.

As to `Cc1nc2nc(-c3ccccc3)cn2c(-c2ccc(Cl)cc2Cl)c1CN`, the Ki in [1] and in data set [2] was > 30 µM in each case. For the same compound, the IC50 in data set [3] is 1 µM; in data set [4], > 40 µM; in [6], 13 µM; in [7] (read-out: IC50), 19 µM. Further, the “inhibition (INH)” value in [5] is 74%. The Activity was found to be 51% in data set [8] and 74% in data set [9].

As for `COc1ccccc1-c1cn2c(-c3ccc(Cl)cc3Cl)c(CN)c(C)nc2n1`, the Ki in data set [2] was > 10 µM.

With `Cc1nc2nc(N3CCNCC3)nn2c(-c2ccc(Cl)cc2Cl)c1CN`, the Ki in data set [1] and in [2] was > 30 µM each time.
